Assay results published in ChEMBL document CHEMBL1201862, “PubChem BioAssay data set” (2004).
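Cultured in 96-well plates, cells were exposed to test compound for 48 hours across five concentrations. GI50 = concentration required for 50% inhibition of growth.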 Active and inactive are the calls of the source. Rule as the data show it: active = GI50 up to about 1.1 µM and inactive = higher.

Columns and labels:
Experiment in all cases: growth of human tumour cells (NCI), 48 h
MOLT-4 = system: MOLT-4
K562 = system: K562
HOP-92 = system: HOP-92
OVCAR-4 = system: OVCAR-4
SK-MEL-5 = system: SK-MEL-5
HCT-116 = system: HCT-116
SK-MEL-2 = system: SK-MEL-2
CCRF-CEM = system: CCRF-CEM
RXF 393 = system: RXF 393
SNB-19 = system: SNB-19
SNB-75 = system: SNB-75
ACHN = system: ACHN
UACC-257 = system: UACC-257
UO-31 = system: UO-31
SF-539 = system: SF-539
HL-60 = system: HL-60
SF-295 = system: SF-295
SK-MEL-28 = system: SK-MEL-28
NCI-H226 = system: NCI-H226
RPMI-8226 = system: RPMI-8226

Row | Compound | GI50 (MOLT-4) | GI50 (K562) | GI50 (HOP-92) | GI50 (OVCAR-4) | GI50 (SK-MEL-5) | GI50 (HCT-116) | GI50 (SK-MEL-2) | GI50 (CCRF-CEM) | GI50 (RXF 393) | GI50 (SNB-19) | GI50 (SNB-75) | GI50 (ACHN) | GI50 (UACC-257) | GI50 (UO-31) | GI50 (SF-539) | GI50 (HL-60) | GI50 (SF-295) | GI50 (SK-MEL-28) | GI50 (NCI-H226) | GI50 (RPMI-8226)
1 | CN(C)CN1C(=O)/C(=N\n2c(S)nnc2-c2ccncc2)c2ccccc21 | 12.1 µM (inactive) | 26.5 µM (inactive) | 76.9 µM (inactive) | 17.1 µM (inactive) | 39.4 µM (inactive) | 34 µM (inactive) | 21.4 µM (inactive) | 9.38 µM (inactive) | 17 µM (inactive) | 54.5 µM (inactive) | 38.5 µM (inactive) | 48.1 µM (inactive) | 15.5 µM (inactive) | 29.5 µM (inactive) | 23.5 µM (inactive) | 11.7 µM (inactive) | > 100 µM (inactive) | 57.1 µM (inactive) | > 100 µM (inactive) | –
2 | CN(C)CCNC(=O)c1cccc2c1nc(-c1cccnc1)c1ccccc12 | 0.311 µM (active) | 5.98 µM (inactive) | 5.31 µM (inactive) | 4.91 µM (inactive) | 3.37 µM (inactive) | 2.95 µM (inactive) | 10.6 µM (inactive) | 4.29 µM (inactive) | 4.71 µM (inactive) | 7.05 µM (inactive) | 9.35 µM (inactive) | 2.58 µM (inactive) | 3.89 µM (inactive) | 2.69 µM (inactive) | 2.65 µM (inactive) | 1.97 µM (inactive) | 4.72 µM (inactive) | 11.1 µM (inactive) | 2.3 µM (inactive) | –
3 | CCCCCCCCCCCC(=O)C1=C(O)CCC(O)C1=O (configuration not stated) | 17.9 µM (inactive) | 7.6 µM (inactive) | 17.7 µM (inactive) | 18.5 µM (inactive) | 10 µM (inactive) | 21.3 µM (inactive) | 11.9 µM (inactive) | 8.18 µM (inactive) | 35.1 µM (inactive) | 9.08 µM (inactive) | 21.6 µM (inactive) | 19.4 µM (inactive) | 14.7 µM (inactive) | 19.7 µM (inactive) | 19.1 µM (inactive) | 13.5 µM (inactive) | 8.17 µM (inactive) | 16.1 µM (inactive) | 18 µM (inactive) | –
4 | O=C1c2ccccc2C(=O)c2c1sc1nc3ccccc3n21 | 1.97 µM (inactive) | 2.03 µM (inactive) | 10.4 µM (inactive) | – | 16.5 µM (inactive) | 1.7 µM (inactive) | – | 1.94 µM (inactive) | 1.79 µM (inactive) | 2.11 µM (inactive) | 13.1 µM (inactive) | 2.23 µM (inactive) | 1.88 µM (inactive) | 2.01 µM (inactive) | 1.81 µM (inactive) | 3.8 µM (inactive) | 1.66 µM (inactive) | – | 5.68 µM (inactive) | 1.33 µM (inactive)
5 | O=C(CCC(=O)OCC1OC(O)(CC2OC(CO)C(O)C(O)C2O)C(O)C1O)OCc1ccccc1 (configuration not stated) | – | > 100 µM (inactive) | > 100 µM (inactive) | > 100 µM (inactive) | > 100 µM (inactive) | > 100 µM (inactive) | > 100 µM (inactive) | 67.1 µM (inactive) | > 100 µM (inactive) | > 100 µM (inactive) | > 100 µM (inactive) | > 100 µM (inactive) | > 100 µM (inactive) | > 100 µM (inactive) | > 100 µM (inactive) | > 100 µM (inactive) | > 100 µM (inactive) | > 100 µM (inactive) | > 100 µM (inactive) | –
6 | COc1ccc2c(c1)[n+]([O-])c(-c1cccc(Cl)c1)c(N)[n+]2[O-] | 46 µM (inactive) | 45.1 µM (inactive) | > 100 µM (inactive) | 34.6 µM (inactive) | 19.2 µM (inactive) | 38.5 µM (inactive) | 18.7 µM (inactive) | 22.9 µM (inactive) | 53.8 µM (inactive) | > 100 µM (inactive) | – | 57.3 µM (inactive) | 21.1 µM (inactive) | 89.3 µM (inactive) | 31.3 µM (inactive) | 29 µM (inactive) | 97.1 µM (inactive) | 23.6 µM (inactive) | > 100 µM (inactive) | –
7 | COc1ccc(/C=C2/SC(c3ccccc3)N(NC(=O)CCCCCCCCC(=O)NN3C(=O)/C(=C\c4ccc(OC)c(OC)c4)SC3c3ccccc3)C2=O)cc1OC (configuration not stated) | 19.7 µM (inactive) | 6.59 µM (inactive) | 17.3 µM (inactive) | 76.7 µM (inactive) | – | 29.1 µM (inactive) | 52.7 µM (inactive) | – | 58.5 µM (inactive) | 86.1 µM (inactive) | 35.2 µM (inactive) | 25.6 µM (inactive) | 39.4 µM (inactive) | 58.2 µM (inactive) | 24.6 µM (inactive) | – | 24.2 µM (inactive) | 48 µM (inactive) | > 100 µM (inactive) | 20.7 µM (inactive)
